Assay results reported in patent publication US12466818B2, “Thienyl-aniline compounds for treatment of dermal disorders” (NFlection Therapeutics, Inc., priority 2018, dated 2025).

Tests used:
[1] = Assay 6: liver microsomes half-life stability assay; type: in vitro ADME; details: pH 7.4; human liver microsomes, 1 μM test compound, NADPH
Experimental: Metabolic stability of testing compound can be evaluated using human liver microsomes to predict intrinsic clearance. Human liver microsomes are obtained from Corning Gentest.
The assay was carried out in 96-well microtiter plates at 37° C. Reaction mixtures (25 μL) contain a final concentration of 1 μM test compound, 0.5 mg/mL liver microsomes protein, and 1 mM NADPH in buffer (100 mM potassium phosphate, pH 7.4 buffer with 3 mM MgCl2). At each of the time points (0, 15, 30, and 60 minutes), 150 μL of quench solution (100% acetonitrile with 0.1% formic acid) with internal standard was transferred to each well. Verapamil was included as a positive control to verify assay performance. Plates were sealed and centrifuged at 4° C. for 15 minutes at 4000 rpm. The supernatant was transferred to fresh plates for LC/MS/MS analysis.
All samples were analyzed on LC/MS/MS using an AB Sciex API 4000 instrument, coupled to a Shimadzu LC-20AD LC Pump system. […]
The extent of metabolism was calculated as the disappearance of the test compound, compared to the 0-min time incubation. Initial rates were calculated for the compound concentration and used to determine t1/2 values and subsequently, the intrinsic clearance, CLint=(0.693)(1/t1/2 (min))(g of liver/kg of body weight)(mL incubation/mg of microsomal protein)(45 mg of microsomal protein/g of liver weight). […]

[2] = test system: pERK in human cutaneous neurofibroma explants; assay: Human cutaneous neurofibroma explant pERK suppression (Western blot); type: cell-based
Experimental: Explant Protocol: Human cutaneous neurofibroma explant samples were collected in DMEM/F-12 (Thermo Fisher, Cat #11320033) supplemented with 1×B27 supplement (Thermo Fisher, Cat #17504044), 2.5 μg/ml of Amphotericin B (Thermo Fisher, Cat #15290018), and 50 units/ml of Penicillin-50 μg/ml of Streptomycin (Thermo Fisher, Cat #15070063) and incubated in the same medium for subsequent treatment. The specimen was cut into small cubes containing both the epidermis and dermis. The tissues were partially submerged in the medium in 384-well plate with the epidermis exposed to the air.
The tissues were fully submerged in the medium in 48-well plate and 5 μl of compounds dissolved in DMSO were added to 200 μl of the medium in each well. After 4 h incubation at 37° C. and 5% CO2, the tissues were harvested and half of the specimen was flash frozen in liquid nitrogen for Western Blot analysis. The other half of the specimen was fixed for 24 hours in 10% formalin and then transferred to 70% ethanol for […].
Skin samples were thawed on ice and weighed. 10 volume (10 μl for each mg of tissue) of lysis buffer (RIPA buffer+0.5 mM EDTA+1×Halt protease and phosphatase inhibitor cocktail) was then added to each sample. […]
Western Blot analysis: The lysate was thawed on ice and protein concentration was determined by the BCA protein assay kit using bovine serum albumin (BSA) as standards. […]

half-life at 1 μM [1]: ≤ 50 min
Compound: O=C1CCCc2c1sc(Nc1ccc(I)cc1F)c2C(=O)NOCCO [Compound 1.029, 2-((2-Fluoro-4-iodophenyl)amino)-N-(2-hydroxyethoxy)-7-oxo-4,5,6,7-tetrahydrobenzo[b]thiophene-3-carboxamide]
suppression of pERK in human cutaneous neurofibroma (cNF) explants (FIG. 5) ([2]; concentration of 500 nM): suppression of pERK | suppression of pERK in human cutaneous neurofibroma (cNF) explants (FIG. 4) ([2]; treatment for 4 hours at 5 nM, 50 nM, and 500 nM): suppression of pERK
